Test results as given in PubChem BioAssay AID179 (DTP/NCI, 2004).
The source made the active and inactive calls.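 How the source made its calls: active means compounds giving half or more protection of infected cells from virus-caused growth loss, again on retest; inactive means the rest.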

System: CEM cells HIV-1 protection, formazan growth assay
Assay: NCI AIDS Antiviral Assay
Conditions: for IC50: measured here: growth of uninfected CEM cells
Procedure, shortened: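 Human CEM cells, uninfected and HIV-1-infected, exposed to five drug concentrations; growth measured by soluble formazan assay and scored as percent protection from infection, with protecting compounds retested.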

| Compound | EC50 | IC50 | outcome |
| --- | --- | --- | --- |
| CCOC1CN=C(Nc2cccc3ccccc23)S1 (centres undefined) | > 200 µM | 162 µM |  |
| OCc1nnn(-c2ccccc2)c1CO | > 200 µM | > 200 µM |  |
| CC1=C(C)C2(C#N)CC(=O)N=C2O1 (centres undefined) | > 200 µM | > 200 µM |  |
| COc1cc(OC)c(OC)cc1/C=C/c1cc[n+](C)c2ccccc12 | > 200 µM | 7.59 µM |  |
| COC1/C=C\OC2(C)Oc3c(C)c(O)c4c(O)c(c(CN(C)C)c(O)c4c3C2=O)NC(=O)/C(C)=C\C=C/C(C)C(O)C(C)C(O)C(C)C(OC(C)=O)C1C (centres undefined) |  |  | inactive |
| CC1C(c2ccc(N(C)C)cc2)c2cc3c(cc2OC1N1CCCC1)OCO3 (centres undefined) | > 100 µM | 17 µM |  |
| Cc1nc2c(nc1C)C(=O)C(N(C)C)=CC2=O |  |  | inactive |
| Cc1nc(Nc2ccccc2Cl)sc1C(=O)CC(=O)C(=O)Nc1c(Cl)cccc1Cl | > 200 µM | 57.5 µM |  |
| O=C(/C=C/c1ccccc1Br)c1ccccc1 | > 200 µM | 3.16 µM |  |
| O=c1c2cc([N+](=O)[O-])ccc2n2n1CCCCC2 | > 200 µM | > 200 µM |  |
| NC(=O)N/N=C1\CC2C3CC4C2C4C13 (centres undefined) | > 200 µM | > 200 µM |  |
| Cc1cc(N(CCC#N)CCC#N)ccc1/C=C1N=C(/C=C\c2ccccc2)OC\1=O | > 17.8 µM | > 17.8 µM |  |
| CCCCCCc1nn2c(-c3ccncc3)nnc2s1 | > 100 µM | 52.5 µM |  |
| Cc1cc(N(CCC#N)S(C)(=O)=O)ccc1C=Nc1ccc(C(=O)NN2C(=O)/C(=C/c3ccc(N(CCC#N)CCC#N)cc3C)N=C2c2cc([N+](=O)[O-])ccc2Cl)cc1 | > 42.7 µM | > 42.7 µM |  |
| COC(=O)c1ccccc1C1=C(O)C(=O)C(c2ccccc2C(=O)OC)=C(O)C1=O | > 63.1 µM | 6.76 µM |  |
| C(=Nc1ccc(-c2cc(-c3ccccc3)nc3ccc4ccccc4c23)cc1)c1ccccc1 | > 200 µM | 31.6 µM |  |
| CNc1ccc2[nH]c(=O)ccc2c1[N+](=O)[O-] | > 12 µM | > 12 µM |  |
| COc1ccc(S(=O)(=O)N/N=C/CN2C(=O)c3ccccc3C2=O)cc1 | > 135 µM | > 135 µM |  |
| CCCCCCCCCN=C(N)CSSCC(N)=NCCCCCCCCC | > 200 µM | 19.5 µM |  |
| COC(=O)C(c1ccccc1)C(SCc1ccccc1)c1ccccc1 (centres undefined) | > 200 µM | > 200 µM |  |
| CCC[CH2][Sn]1([CH2]CCC)[O]N=C(c2ccccc2)C(c2ccccc2)[O]1 (centres undefined) | > 19.5 µM | 2.45 µM |  |
| CNC(=O)C(C)C1C(=O)/C(=C(O)/C=C\C(C)=C\C(C)C2OC3(C)OC(C=CC34CO4)C2C)C(=O)N1C1CCC(O)C(C)O1 (centres undefined) | > 31.6 µM | > 31.6 µM |  |

| Compound | EC50 | IC50 | outcome |
| --- | --- | --- | --- |
| Oc1ccc(-c2cc(-c3cc(-c4ccc(O)cc4)no3)on2)cc1 | > 200 µM | 6.31 µM |  |
| CCN=C(Nc1cccc(C2=NCCN2)c1)c1ccc(C(=NCC)Nc2cccc(C3=NCCN3)c2)cc1 | 145 µM | > 200 µM |  |
| CCOC(=O)/C(O)=C/c1cc(OC)cc(=O)o1 |  |  | inactive |
| CON(C)C(=O)CCCO | > 1700 µM | > 1700 µM |  |
| COCOc1ccc(C(=O)C(C)c2ccc(OCOC)cc2OCOC)c(O)c1 (centres undefined) | > 200 µM | 25.7 µM |  |
| C[C@]12CCC(=O)C(OC(=O)c3ccc([N+](=O)[O-])cc3)=C1CCC2=O |  |  | inactive |
| Nc1c(Cl)cccc1-c1c[nH]c(Cl)c1Cl | > 138 µM | 72.4 µM |  |
| COc1ccc(/C=C2/Cc3cccc4c([N+](=O)[O-])ccc2c34)cc1 | > 100 µM | > 100 µM |  |
| C(=N\OCc1ccccc1)/c1ncccc1C1OCCO1 | > 331 µM | 309 µM |  |
| O=C1c2c(O)cc(O)cc2OC(c2ccc(O)c(O)c2)C1O (centres undefined) | > 200 µM | > 200 µM |  |
| COc1ccc(-c2cc[n+]([O-])c(C)c2C)c(OC)c1OC | > 871 µM | 83.2 µM |  |
| c1ccc(C[n+]2ccc3c(c2)CCCC3)cc1 | > 200 µM | 40.7 µM |  |
| CC(C)(C)C1CC[C@H]2c3c([nH]c4ccc(Br)cc34)[C@H]3C(=O)N(c4ccccc4)C(=O)[C@H]3[C@H]2C1 (some centres undefined) | > 7.24 µM | > 7.24 µM |  |
| N#Cc1c(N)c2c(c(-c3ccccc3)c1-c1ccccc1)C(=O)N(NC(=S)Nc1ccccc1)C2=O | > 58.9 µM | 47.9 µM |  |
| CCCCCCCCCCCCCCCCCC(=O)OC(COC(=O)COCCOCCOCCOCCOCCOC)COP(=O)([O-])OCC[N+](C)(C)C (centres undefined) |  |  | inactive |
| CC1(C)OC2OC(C(O)COC(=O)c3ccccc3)C(F)C2O1 (centres undefined) | > 209 µM | > 209 µM |  |
| Cc1nnc2scnn12 |  |  | inactive |
| CN(C)/C=C/c1c2c(nc3ccccc13)C(=O)c1cccnc1C2=O |  |  | inactive |
| COc1ccc(N2C(=O)C3c4[nH]c5ccc(OCc6ccccc6)cc5c4C4CCC(c5ccccc5)CC4C3C2=O)cc1 (centres undefined) | > 100 µM | > 100 µM |  |
| COc1ccc(CCN(C)C(=O)CC(C#N)(c2ccccc2)c2ccc(OC)c(OC)c2)cc1OC (centres undefined) | > 200 µM | 95.5 µM |  |
| COc1ccc(/C(=N/OCCCC(=O)O)c2cccs2)cc1 |  |  | inactive |
| CCOC(=S)SCC(=O)c1cccc([N+](=O)[O-])c1 |  |  | inactive |

| Compound | EC50 | IC50 | outcome |
| --- | --- | --- | --- |
| C/C(CC(O)(C(F)(F)Cl)C(F)(F)Cl)=N\Nc1ccccc1 | > 200 µM | 52.5 µM |  |
| CNc1ccccc1S(=O)(=O)c1ccccc1Cl | > 63.1 µM | 40.7 µM |  |
| NC(=S)NC/C=C/Cl | > 200 µM | > 200 µM |  |
| Cn1c(=O)c2c(nc3n2CCCC(=O)N3CC(O)CCl)n(C)c1=O (centres undefined) | > 200 µM | 85.1 µM |  |
| C=CCNC(=S)N/C=C(/C#N)C(=O)OC |  |  | inactive |
| CSC1=Nc2ccccc2N=C(c2ccc(Cl)cc2)C1 | > 12.6 µM | > 12.6 µM |  |
| CCCCN(CCCC)C(=NCc1ccccc1)NC#N | > 100 µM | 17.4 µM |  |
| Clc1ccccc1C1SCc2nc3ccccc3n21 (centres undefined) |  |  | inactive |
| CC(=O)NC1=C(C)C(=O)c2c(nc3n2CCC3OC(=O)c2ccccc2)C1=N (centres undefined) | > 200 µM | 0.912 µM |  |
| C1=CC2(C=C1)OC21CCC2(C=CC3(C2)OC3C2CCCCC2)CC1 (centres undefined) | > 200 µM | 51.3 µM |  |
| CC(=O)Nc1ccc(NC(=O)c2cccc3c(Nc4ccc(S(=O)(=O)Nc5cc(C)on5)cc4)c4ccccc4nc23)cc1 | > 200 µM | 23.4 µM |  |
| CCOC(=O)/C=C/c1cccc(OC)c1 | > 158 µM | > 158 µM |  |
| O=C(/C=C\c1ccccc1-c1ccccc1)c1ccccc1 | > 200 µM | > 200 µM |  |
| CC(C)(C)OC(=O)Cn1ncn(NC(=O)Cc2ccccc2)c1=S | > 200 µM | > 200 µM |  |
| COC(=O)/C(=C\c1ccc(N(CCC#N)CCC#N)cc1)NC(=O)c1cc([N+](=O)[O-])ccc1Cl | > 74.1 µM | > 74.1 µM |  |
| CC(=O)C1C(=O)C(C(C)=O)C2C3C=CC(C3)C12 (centres undefined) | > 200 µM | 74.1 µM |  |
| COc1cc(-c2nn3c(=O)n(-c4ccc(Cl)cc4)c(=O)nc3s2)cc(OC)c1OC | > 0.813 µM | > 0.813 µM |  |
| O=C(O)c1ccc(-c2c3ccc(=O)cc-3oc3cc(O)ccc23)cc1 | > 200 µM | 107 µM |  |
| COc1ccc(C2C3=C(COC3=O)Oc3cc4c(cc32)OCO4)cc1OC (centres undefined) | > 20 µM | 0.603 µM |  |
| C=CC1(C)OC2(CCN(C(=O)OCC)CC2)OC1C (centres undefined) | > 200 µM | 123 µM |  |
| O=C(Nc1nnc(-c2ccccc2)s1)c1cc(=O)c2cc([N+](=O)[O-])ccc2o1 | > 200 µM | > 200 µM |  |
| CC[N+]1(C)CCC(O)(c2ccccc2)C(C(=O)c2ccccc2)C1 (centres undefined) |  |  | inactive |

| Compound | EC50 | IC50 | outcome |
| --- | --- | --- | --- |
| COc1cc2c3cc1Oc1c(O)c(OC)cc4c1C(Cc1ccc(O)c(c1)Oc1ccc(cc1)CC3N(C)CC2)N(C)CC4 (centres undefined) |  |  | inactive |
| Cc1ccc([P+](Cc2ccccc2)(c2ccccc2)c2cccc3ccccc23)cc1 (centres undefined) | > 200 µM | 0.55 µM |  |
| [C-]#[O+].[C-]#[O+].[C-]#[O+].[Cr].c1ccc([PH+](CC[As](c2ccccc2)c2ccccc2)CC[As](c2ccccc2)c2ccccc2)cc1 |  |  | inactive |
| Cc1cc(Cl)ccc1NC(=O)/C(Cl)=C(/Cl)C(=O)O |  |  | inactive |
| O=C(CSc1nnc(CSc2ccc(Cl)cc2)n1-c1ccccc1)NC(=O)Nc1ccccc1 | > 182 µM | 115 µM |  |
| O=C(O)P(=O)(O)O | > 7940 µM | 5750 µM |  |
| CC(C)CC(C[C@@H](O)[C@H](Cc1ccccc1)NC(=O)O[C@H]1CCOC1)S(=O)(=O)c1ccccc1 (some centres undefined) | 38.9 µM | 112 µM |  |
| Cc1cc(C#N)c[n+](C)c1 | > 200 µM | > 200 µM |  |
| CCOC(=O)[C@H]1Nc2c(cccc2[N+](=O)[O-])[C@H]2OCC[C@@H]12 | > 447 µM | > 447 µM |  |
| CC(=O)N(C)n1cn[n+](CC(=O)OC(C)(C)C)c1 | > 200 µM | > 200 µM |  |
| CC(=O)N/C(=C\c1ccc(Cc2nc3c([nH]2)C(=O)c2ccccc2C3=O)cc1)c1nc2c([nH]1)C(=O)c1ccccc1C2=O | > 12.6 µM | > 12.6 µM |  |
| C#C[C@]1(O)CCC2C3CCc4cc(Oc5nc(F)nc(-c6c7cc8ccccc8cc7c7n6CCS7)n5)ccc4C3CCC21C (some centres undefined) | > 200 µM | 25.1 µM |  |
| CC1(C)N=C(/C(Cl)=[N+](/[O-])C(=O)c2ccc(F)cc2)C(C)(C)N1O | > 200 µM | 51.3 µM |  |
| O=[N+]([O-])c1ccccc1S(=O)c1ccccc1 (centres undefined) | 6.76 µM | 22.4 µM |  |
| COC(=O)C1CC2C=CC1N(C(=O)OCc1ccccc1)C2 (centres undefined) | > 200 µM | 170 µM |  |
| N#CC(=Nc1ccccc1N(C(=O)c1ccccc1)C(=O)c1ccccc1)c1ccccc1 | > 17 µM | > 17 µM |  |
| c1cc2c(cnc3cscc32)s1 |  |  | inactive |
| CC(C)(C)C(=O)C(Cc1ccccc1)C(=O)C(C)(C)C |  |  | inactive |
| O=c1[nH]c(=O)n(C2CC(O)C(CO)O2)cc1C#Cc1cc(C(F)(F)F)cc(C(F)(F)F)c1 (centres undefined) | > 40.7 µM | > 40.7 µM |  |
| N#C/C(=C\n1c(=S)[nH]c2ccc([N+](=O)[O-])cc21)c1cccc(Cl)c1 | > 200 µM | 120 µM |  |
| BrCc1ccc(C[P+](c2ccccc2)(c2ccccc2)c2ccccc2)cc1 | > 200 µM | 3.89 µM |  |
| CC(C(=O)OCc1ccccc1)(c1ccco1)N1C(=O)OC(c2ccccc2)C1c1ccccc1 (centres undefined) | > 200 µM | 13.5 µM |  |
